Assay results: publication PMC8175350, “Drug repurposing screens identify chemical entities for the development of COVID-19 interventions” (Nature Communications, 2021)
Structures can show the parent of a compound that is named as a salt. Where two headings read alike, the source gives them in different places.

Assays:
[1] = tested on: HeLa-ACE2 cells; assay: cells; conditions: Homo sapiens; for EC50: HeLa-ACE2, read-out: HeLa-ACE2 cell count EC50 GeoMean; for Emax: HeLa-ACE2, 24 h, read-out: HeLa-ACE2 cell count Sinf Average
[2] = tested on: HeLa-ACE2 cells; assay: Total cell count in the HeLa-ACE2 TOA (time of addition) assay; type: cell-based, human; conditions: for EC50: Homo sapiens, HeLa-ACE2, read-out: HeLa-ACE2 TOA cell count EC50 GeoMean
[3] = tested on: HEK293T; conditions: human
[4] = tested on: Calu-3 cells; conditions: for Calu-3 uninfected cytotoxicity Sinf Average: human
[5] = tested on: SARS-CoV-2; assay: microbe, parasite or virus in culture; type: cell-based; conditions: for Emax: Severe acute respiratory syndrome coronavirus 2, HeLa-ACE2, 24 h, read-out: HeLa-ACE2 CoV-2 Sinf Average; for EC50: read-out: HeLa-ACE2 CoV-2 EC50 GeoMean
[6] = tested on: SARS-CoV-2; assay: microbe, parasite or virus in culture; type: cell-based; conditions: for Emax: Severe acute respiratory syndrome coronavirus 2, HeLa-ACE2, 10 h, read-out: HeLa-ACE2 TOA CoV-2 Sinf Average; for EC50: read-out: HeLa-ACE2 TOA CoV-2 EC50 GeoMean
[7] = tested on: SARS-CoV-2; assay: microbe, parasite or virus in culture; type: cell-based; conditions: for Emax: Severe acute respiratory syndrome coronavirus 2, Calu-3, 48 h, read-out: Calu-3 CoV-2 Sinf Average; for EC50: read-out: Calu-3 CoV-2 EC50 GeoMean
[8] = tested on: HepG2; conditions: human
[9] = tested on: Calu-3 cells; assay: cells; conditions: Homo sapiens; for Emax: Calu-3, 48 h, read-out: Calu-3 cell count Sinf Average; for EC50: Calu-3, read-out: Calu-3 cell count EC50 GeoMean
[10] = Uninfected HeLa-ACE2 24 h live/dead cytotoxicity counter screen; type: cell-based, human; conditions: human, uninfected HeLa-ACE2 cells; read-out: HeLa-ACE2 uninfected cytotoxicity CC50 GeoMean
[11] = tested on: HeLa-ACE2 cells; assay: as above; type: cell-based, human
[12] = in vitro; conditions: human, Calu-3 uninfected cytotoxicity CC50 GeoMean
[13] = tested on: SARS-CoV-2; type: cell-based; conditions: combination with remdesivir
[14] = Uninfected Calu-3 48 h Cell-Titer Glo cytotoxicity counter screen; conditions: human, uninfected Calu-3 cells, Calu-3 uninfected cytotoxicity CC50 GeoMean
[15] = HEK293T 72 h CellTiter-Glo cytotoxicity; conditions: human, HEK293T cells
[16] = tested on: HEK293T; assay: HEK293T 72 h CellTiter-Glo cytotoxicity; conditions: 72 h
[17] = HepG2 72 h CellTiter-Glo cytotoxicity; conditions: human, HepG2 cells
[18] = tested on: HepG2; assay: HepG2 72 h CellTiter-Glo cytotoxicity; conditions: 72 h
[19] = tested on: Calu-3 cells; assay: Uninfected Calu-3 48 h Cell-Titer Glo cytotoxicity counter screen; conditions: human, uninfected Calu-3 cells, 48 h
[20] = Severe acute respiratory syndrome coronavirus 2, HeLa-ACE2, detail column
[21] = selectivity index, uninfected HeLa-ACE2 CC50 / SARS-CoV-2 EC50
[22] = Severe acute respiratory syndrome coronavirus 2, Calu-3, detail column
[23] = human, uninfected HeLa-ACE2 cells, 24 h
[24] = Severe acute respiratory syndrome coronavirus 2, Calu-3
[25] = Severe acute respiratory syndrome coronavirus 2, HeLa-ACE2
[26] = selectivity index, uninfected Calu-3 CC50 / SARS-CoV-2 EC50

Structure (SMILES) | EC50 [1] [µM] | EC50 [2] [µM] | HEK293T 72-hour cytotoxicty Sinf Average ([3]; 72 h) [%] | uninfected Calu-3 CC50 [4] | Calu-3 uninfected cytotoxicity Sinf Average ([4]; 48 h) [%] | Emax [5] [%] | EC50 [5, 20] [µM] | HeLa-ACE2 SI [5, 21] | Emax [6] [%] | Emax [7] [%] | EC50 [7, 22] [µM] | HepG2 72-hour cytotoxicity Sinf Average ([8]; 72 h) [%] | Emax [9] [%] | EC50 [9] [µM] | CC50 at 24 h [10] [µM] | HeLa-ACE2 uninfected cytotoxicity Sinf Average [11, 23] [%] | CC50 at 48 h [12] [µM] | TOA:HeLa-ACE2 EC50 Ratio [6] | Emax [1] [%] | EC50 [6, 25] [µM] | also measured
Cc1cccc(/C=N/Nc2cc(N3CCOCC3)n3nc(-c4ccncc4)cc3n2)c1 [APY0201] | > 9.59 | > 9.59 | -96 | > 26.965 ×÷ 1.196 (n=6) μM | -100 | 96 | 0.014 | > 2853.95 | 100 | 97 | > 9.39 | -100 | 100 | > 9.98 | > 39.4 | -100 | > 27 |  |  |  | EC50 [6, 20]: > 9.59 µM
CCN(CC)CCCNc1ccnc2cc(Cl)ccc12 [AQ-13] | > 9.6 | > 9.61 | -100 | > 29.255 ×÷ 1.046 (n=4) μM | -100 | 101 | 0.8 | 32.34 | 100 | 100 |  | -100 |  | > 9.98 | 25.9 | -100 | > 29.3 | 12.002 |  |  | EC50 [6, 20]: > 9.61 µM; EC50 [7, 24]: > 9.98 µM; HeLa-ACE2 synergy score with remdesivi [13]: -1.765 δ
Nc1nc(Nc2ccc3c(c2)CC[C@@H](N2CCCC2)CC3)nn1-c1cc2c(nn1)-c1ccccc1CCC2 [BGB324] | > 9.15 | > 9.59 | -102 | 19.024 ×÷ 1.18 (n=3) μM | -100 | 98 | 1.2 | 13.05 | 100 | 100 | 6.94 | -105 | 100 | 6.27 | 15.7 | -101 | 19 | 7.782 | 100 | > 9.35 | Calu-3 SI [7, 26]: 2.74; HeLa-ACE2 synergy score with remdesivi [13]: 7.223 δ
Cc1c(-c2ccc(O)cc2)n(Cc2ccc(OCCN3CCCCCC3)cc2)c2ccc(O)cc12 [Bazedoxifene acetate] | > 8.59 | > 9.59 |  |  |  | 100 |  |  | 100 | 94 |  |  |  | > 9.98 | > 20.7 |  |  |  | 100 | > 4.47 | CC50 at 48 h [14]: 10.6 µM; CC50 at 72 h [15]: 9.19 µM; HEK293T 72-hour cytotoxicty Sinf Average [16]: -106%; EC50 [5, 25]: 2.89 µM; CC50 at 72 h [17]: 3.21 µM; HepG2 72-hour cytotoxicity Sinf Average [18]: -99%; EC50 [7, 24]: > 7.73 µM
COc1cc(-n2cnc3cc(-c4ccc(Cl)cc4)sc3c2=O)ccc1OCCN1CCCC1 [GW-803430] | > 7.88 | > 9.59 |  |  |  | 100 |  |  | 100 | 100 |  |  | 100 | > 9.98 | 18.9 |  |  | 5.656 | 100 |  | HEK293T 72-hour cytotoxicty Sinf Average [16]: -101%; Calu-3 uninfected cytotoxicity Sinf Average [4]: -116%; HeLa-ACE2 SI [5]: 11.16; EC50 [5, 25]: 1.7 µM; EC50 [6, 20]: > 9.59 µM; HepG2 72-hour cytotoxicity Sinf Average [18]: -100%; Calu-3 SI [7]: 0.88; EC50 [7, 24]: 6.57 µM; HeLa-ACE2 uninfected cytotoxicity Sinf Average [11]: -100%; CC50 [12]: 5.81 µM
CCCCC1CCc2cc(O)cc3c(CCN4CCN(c5cc(C)ccn5)CC4)c(C)n1c23 (stereo not drawn) [KC 11404] | > 9.59 | > 9.59 | -100 | 12.778 ×÷ 1.123 (n=3) μM | -100 | 100 | 2.5 | > 8.39 | 100 | 100 | 8.02 | -101 |  | > 9.98 | > 20.9 | -100 | 12.8 | 0.864 | 100 | 2.16 | HeLa-ACE2 TOA cell count Sinf Average [2]: 100%; Calu-3 SI [7, 26]: 1.59; HeLa-ACE2 synergy score with remdesivi [13]: -2.817 δ
CCCCN1CC[C@H](c2ccc(N(C)C)cc2)[C@@H](COc2ccc(C(F)(F)F)cc2)C1 [NNC 090026] | > 8.97 | > 9.61 | -100 | > 23.525 ×÷ 1.612 (n=4) μM | -100 | 94 | 2.75 | > 5.59 | 100 | 100 | > 8.31 | -100 |  | > 9.98 | > 15.4 | -100 | > 23.5 | 1.737 | 96 | 4.77 | Calu-3 SI [7, 26]: > 2.83
OC(CNCC(O)C1CCc2cc(F)ccc2O1)C1CCc2cc(F)ccc2O1 (stereo not drawn) [Nebivolol HCl] | > 9.12 | > 4.56 |  |  |  | 99 | 2.96 | > 3.75 | 98 | 100 | > 8.69 |  |  | > 9.98 | > 11.1 | -103 |  | 0.619 | 100 | 1.83 | HeLa-ACE2 TOA cell count Sinf Average [2]: 70%; Calu-3 uninfected cytotoxicity Sinf Average [19]: -100%; CC50 at 48 h [14]: 13.6 µM; CC50 at 72 h [15]: 5.57 µM; HEK293T 72-hour cytotoxicty Sinf Average [16]: -106%; CC50 at 72 h [17]: 7.62 µM; HepG2 72-hour cytotoxicity Sinf Average [18]: -99%; Calu-3 SI [7, 26]: < 1.57
CC(C)Oc1ccc(-c2nc(-c3cccc4c3CC[C@@H]4NCCO)no2)cc1C#N [Ozanimod] | > 8.74 | > 9.59 | -100 | 13.319 ×÷ 1.347 (n=3) μM | -100 | 101 | 2.63 | > 5.60 | 100 | 97 | > 7.74 | -103 | 100 | > 9.98 | > 14.7 | -101 | 13.3 | 2.748 | 100 | > 7.24 | Calu-3 SI [7, 26]: < 1.72; HeLa-ACE2 synergy score with remdesivi [13]: -4.622 δ
COc1cc(C[C@H]2c3cc(OC)c(OC)cc3CCN2C)c(Oc2cc3c(cc2OC)-c2c(OC)c(OC)cc4c2[C@H](C3)N(C)CC4)cc1OC [Thalicarpine] | > 9.6 | > 9.61 |  |  |  | 96 |  |  | 100 |  |  |  | -100 | > 9.98 | > 26.6 |  |  | 16.501 |  |  | HEK293T 72-hour cytotoxicty Sinf Average [3]: -105%; Calu-3 uninfected cytotoxicity Sinf Average [4]: -92%; HeLa-ACE2 SI [5]: > 45.67; EC50 [5, 25]: 0.582 µM; EC50 [6, 20]: > 9.61 µM; EC50 [7, 24]: > 9.98 µM; HepG2 72-hour cytotoxicity Sinf Average [8]: -105%; HeLa-ACE2 uninfected cytotoxicity Sinf Average [11]: -99%; CC50 [12]: > 15.3 µM
